In brackets after ≈: the same amount, converted by molar mass. Activity calls are given as the source filed them. No cut-off for these calls is given here.
Assays:
Micrococcus luteus [1] = experiment: Antibacterial activity against Sarcina lutea; assay type: functional
Bacillus subtilis [2] = experiment: Antibacterial activity against Bacillus subtilis; assay type: functional
L1210 = experiment: Cytotoxicity against mouse L1210 cells; assay type: functional, cell-based
KB = experiment: Cytotoxicity against human KB cells; assay type: functional, cell-based
Staphylococcus aureus [3] = experiment: Antibacterial activity against Staphylococcus aureus; assay type: functional
Staphylococcus aureus [4] = experiment: Antibacterial activity against Staphylococcus aureus at 260 ug/ml; assay type: functional, organism-based
Micrococcus luteus [5] = experiment: Antibacterial activity against Sarcina lutea at 260 ug/ml; assay type: functional, organism-based
Bacillus subtilis [6] = experiment: Antibacterial activity against Bacillus subtilis at 260 ug/ml; assay type: functional, organism-based

Row | SMILES | MIC (Micrococcus luteus [1]) [µg/mL] | MIC (Bacillus subtilis [2]) [µg/mL] | IC50 (L1210) [µg/mL] | IC50 (KB) [µg/mL] | MIC (Staphylococcus aureus [3]) [µg/mL] | Activity (Staphylococcus aureus [4]) | Activity (Micrococcus luteus [5]) | Activity (Bacillus subtilis [6])
1 | CC1CC1C(C)CC(O)C(O)(CO)[C@H]1CC[C@H]2[C@@H]3CC[C@H]4CC(=O)CC[C@]4(C)[C@H]3C[C@@H](O)[C@]12C (stereo partly drawn) [XESTOKEROL A] | 16 (≈ 33.6 µM) | 16 (≈ 33.6 µM) | 2.1 (≈ 4.41 µM) | 4.4 (≈ 9.23 µM) | 16 (≈ 33.6 µM) |  |  | 
2 | CC(CCC(C)(O)[C@H]1CC[C@H]2[C@@H]3[C@H](O)C[C@H]4CC(=O)CC[C@]4(C)[C@H]3C[C@@H](O)[C@]12C)C1CC1C (stereo partly drawn) [XESTOKEROL B] |  |  | 2.2 (≈ 4.78 µM) | 4.6 (≈ 9.98 µM) |  | inactive | inactive | inactive
3 | C=C(C(=O)CC(C)C1CC1C)[C@H]1CC[C@H]2[C@@H]3CC[C@H]4CC(=O)CC[C@]4(C)[C@H]3C[C@@H](O)[C@]12C (stereo partly drawn) [XESTOKEROL C] | 66 (≈ 150 µM) |  | 0.78 (≈ 1.77 µM) | > 10 |  |  |  | 
